Literature values as cited in patent US9526741B2, “Chemosensory receptor ligand-based therapies” (NaZura BioHealth, Inc., priority 2009, dated 2016).

Test system: GLP-1
Details: humans

In the case of `OCCN1C[C@H](O)[C@@H](O)[C@H](O)[C@H]1CO` [miglitol], the “postprandial GLP-1 levels” value is given as “increase”.
